Values of other authors in patent US20030165566A1, “Sedative non-benzodiazepine formulations” (priority 2002, published 2003).
Structures can show the parent of a compound that is named as a salt. Where two headings read alike, the source gives them in different places.

Assays:
[1] = in vivo
[2] = 10 mg
[3] = single 20 mg oral dose, elderly (>70 years) vs 20 to 40 years
[4] = single 20 mg oral dose, elderly subjects (>70 years)
[5] = single 20 mg oral dose, younger adults (20 to 40 years)
[6] = 20 minutes after a meal vs fasting

| Compound | half-life [1] | increase of mean AUC, elderly vs younger adults [3] [%] | increase of mean Cmax, elderly vs younger adults [3] [%] | increase of mean T1/2, elderly vs younger adults [3] [%] | mean AUC [4] | mean Cmax [4] [ng/mL] | mean T1/2 [4] [h] | mean AUC [5] [ng/h/mL] | mean Cmax [5] [ng/mL] | mean T1/2 [5] [h] | mean Tmax ([2]; 20 minutes after a meal) [h] | decrease of mean AUC with food [2, 6] [%] | decrease of mean Cmax with food [2, 6] [%] | half-life with food [2, 6] | prolongation of mean Tmax with food [2, 6] [%] | mean Tmax ([2]; fasting) [h] | accumulation (elderly subjects, nightly oral dosing 10 mg for 1 week) |
| --- | --- | --- | --- | --- | --- | --- | --- | --- | --- | --- | --- | --- | --- | --- | --- | --- | --- |
| Cc1ccc(-c2nc3ccc(C)cn3c2CC(=O)N(C)C)cc1 [Zolpidem] | approximately 2.5 hours | 64 | 50 | 32 | 1,562 ng/hr/ml | 284 | 2.9 | 955 | 255 | 2.2 |  |  |  |  |  |  |  |
| Cc1ccc(-c2nc3ccc(C)cn3c2CC(=O)N(C)C)cc1 [zolpidem tartrate] |  |  |  |  |  |  |  |  |  |  | 2.2 | 15 | 25 | remained unchanged | 60 | 1.4 | did not accumulate |
